System: keratinocytes
Experiment: Active photoprotection towards UVA-induced oxidative stress on keratinocytes (DCFH-DA fluorescent probe)
Type: cell-based
Settings: for % of fluorescence relative to the control cells exposed to UVA, TEST 1 / % of fluorescence relative to the control cells exposed to UVA, TEST 2 / % of fluorescence relative to the control cells exposed to UVA, TEST 3 / % of fluorescence relative to the control cells exposed to UVA, Mean: 24 h pre-incubation; for % of fluorescence relative to the control cells exposed to UVA, TEST 1 / % of fluorescence relative to the control cells exposed to UVA, TEST 2 / % of fluorescence relative to the control cells exposed to UVA, TEST 3: DCF fluorescence after UVA; for % of fluorescence relative to the control cells exposed to UVA, Mean: mean of 3 tests
Procedure: The technique for evaluating the photo-protection is performed according to a well-known method (J. of Photochemistry and Photobiology B: Biology 57 (2000) 102-112 TOBI et al: Glutathione modulates the level of free radicals produced in UVA irradiated cells). This technique uses a fluorescent probe as a marker of the global intracellular oxidative stress, 2′,7′-dichlorofluoresceine diacetate (DCFH-DA).
The use of DCFH-DA as an oxidative stress marker is based on its physicochemical properties. It is a non-ionic apolar molecule capable of diffusing across cell membranes. Once inside the cell, DCFH-DA is hydrolysed by intracellular esterases to a non-fluorescent compound: DCFH or 2,7-dichlorofluoresceine. In the presence of activated oxygen species, DCFH is rapidly oxidized to a highly fluorescent compound: DCF or 2,7-dichlorofluoresceine.
At confluence, the keratinocytes are incubated in the presence of the compound of Example 1 for 24 hours at 37° C., 5% CO2, in the culture medium, according to a dose effect (3 concentrations). • 2. Incorporation of DCFH-DA
The keratinocytes, pretreated with the test compound, are rinsed and then incubated in the presence of DCFH-DA in the dark. • 3. Exposure to UVA
After this incubation, the DCFH-DA solution is removed and the cells are then exposed to UVA.
Comment: an unexposed control plate is kept in darkness at room temperature.
The fluorescence of the DCF is evaluated immediately after the exposure to UVA, by spectro-fluorimetry (excitation: 480 nm; emission: 530 nm). • 5. Results:
The results are expressed in Table 1 below, as a % of fluorescence relative to the control cells exposed to UVA.
The test described in Example 6 above was performed under the same conditions on R-2-oxothiazolidine-4-carboxylic acid (Compound A) and on an alkyl derivative thereof, described in patent U.S. Pat. No. 6,004,543 (Compound B).

In the case of `O=C1N[C@H](C(=O)O)CS1` [Compound A, R-2-oxothiazolidine-4-carboxylic acid, reference compound], the “Measurement of the intracellular Red/Ox balance: % reduction in the fluorescence of the DCFH probe” value (at 5 mM) is reported as 16% at 5 mM.

In the case of `CCOC(=O)C1CSC(=O)N1` (stereo not drawn) [Compound B, reference compound], the “Measurement of the intracellular Red/Ox balance: % reduction in the fluorescence of the DCFH probe” value (at 7 mM, with dose effect) is reported as 37% at 7 mM with dose effect.

With `C[Si](C)(C)COC(=O)[C@@H]1CSC(=O)N1` [Example 1] the “% of fluorescence relative to the control cells exposed to UVA, TEST 1” value (100 μM) was 95%, the “% of fluorescence relative to the control cells exposed to UVA, TEST 2” value (100 μM) was 81% and the “% of fluorescence relative to the control cells exposed to UVA, TEST 3” value (100 μM) was 75%. The “% of fluorescence relative to the control cells exposed to UVA, Mean” value (100 μM) was 84%, the “% of fluorescence relative to the control cells exposed to UVA, TEST 1” value (250 μM) was 82% and the “% of fluorescence relative to the control cells exposed to UVA, TEST 2” value (250 μM) was 71%. The “% of fluorescence relative to the control cells exposed to UVA, TEST 3” value (250 μM) was 70%, the “% of fluorescence relative to the control cells exposed to UVA, Mean” value (250 μM) was 74% and the “% of fluorescence relative to the control cells exposed to UVA, TEST 1” value (500 μM) was 75%. The “% of fluorescence relative to the control cells exposed to UVA, TEST 2” value (500 μM) was 70%, the “% of fluorescence relative to the control cells exposed to UVA, TEST 3” value (500 μM) was 58% and the “% of fluorescence relative to the control cells exposed to UVA, Mean” value (500 μM) was 68%. For the same molecule, the “Measurement of the intracellular Red/Ox balance: % reduction in the fluorescence of the DCFH probe” value (at 500 μM, with dose effect) was “approximately 32%”.
